PMC8486872, “A rational blueprint for the design of chemically-controlled protein switches” (Nature Communications, 2021)
Where “and” joins values, the source holds several entries; their conditions need not be identical. Equal entries are not always repeated.

Columns and labels:
Assay type in all cases: cell-based
[1] = system: SEAP and Luciferase expression in HEK293T cells; test: MIMO designer cells (AIR-1/2-GEMS + CDH-3-TF); conditions: for Luciferase: Fig5c, turn OFF via CDH-3-TF; for AIR-1-GEMS controlled SEAP expression: Fig S13c; for AIR-2-GEMS controlled SEAP expression: Fig S13e
Source text: We first engineered MIMO cells to respond to two drugs with distinct outputs (Fig. 5a) by co-transfecting the CDH-3-TF with either AIR-1-GEMS (Fig. 5b) or AIR-2-GEMS (Fig. 5c).
Fig. 5 Orthogonal chemical switches enable implementation of multi-input multi-output control modes in mammalian cells. a Scheme of multi-inputs multi-outputs (MIMO) designer cells where two drugs control two different outputs. b, c Cells were co-transfected with AIR-1/2-GEMS and CDH-3-TF regulate SEAP and Luciferase expression, respectively. […] AIR-1/2-GEMS coupled with SEAP expression circuits were co-transfected with CDH-1/2-TF circuits which control the Luciferase production. Respective drug concentrations ranged from 0.001 nM to 1 µM. All values presented are mean ± s.d. of three replicates and curves were fitted by four-parameters nonlinear regression. b, c, e, f, h, i Source data are available in the source data file.
Supplementary Figure 13: Orthogonal chemical switches enable implementation of multi-input multi-output control modes in mammalian cells. a) Dual drug toxicity tests in 293T cells. […]
concentrations of 1 nM, 10 nM, 100 nM and 1000 nM each drug in cell culture medium. CCK8 assay was performed 24 hours after drug treatment. Each bar represents the mean of three biological replicates ± s.d, overlaid with a scatter dot plot of the original data points. b-c) Cells were co-transfected with AIR-1-GEMS and CDH-3-TF regulate SEAP and Luciferase expression, respectively. Drug concentrations ranged from 0.001 nM to 1 µM and different combinations were added depending on the protein components, Drug-1 only (b) and Drug-3 only (c). d-e) Cells were co-transfected with AIR-2-GEMS and CDH-3-TF regulate SEAP and Luciferase expression, respectively. Drug concentrations ranged from 0.001 nM to 1 µM and different combinations were added depending on the protein […]
1-TF and CDH-3-TF circuits. Drug-1 concentrations ranged from 0.001 nM to 1 µM (left) and 1 µM Drug-1 with serial diluted Drug-3 from 0.001 nM to 1 µM (right). g) Quantification of SEAP activity controlled by CDH-1-GEMS and CDH-3-GEMS circuits. Drug-1 concentrations ranged from 0.001 nM to 1 µM (left) and Drug-3 dilution along with 1 µM Drug-1 (right). h-i) Quantification of SEAP and Luciferase activities under Drug-1. AIR-1-GEMS coupled with SEAP expression circuits (i) and CDH-1-TF circuits which control the Luciferase production (j). j-k) Quantification of SEAP and Luciferase activities under Drug-2. AIR-2-GEMS coupled with SEAP expression circuits (k) and CDH-2-TF circuits which control the Luciferase production (l). b-k) Each data point represents the mean of n = 3 biological replicates, and the dose-dependent curve were fitted using four-parameter nonlinear regression.

[2] = system: SEAP expression in HEK293T cells; test: Background signal of SEAP reporter and single-construct controls
Method: Supplementary Figure 7: Dose-dependence and reversibility characterization of CDHs in CDH- […]
(§1) transfected with SEAP reporter S132 and treated with 1 µM Drugs 12 hours post transfection.
(§2) Quantification of SEAP was performed 24 hours after drug treatment. b) Drug specificity of CDH-TFs. […]
Background signal of SEAP reporter in the absence of the CDH-GEMS system. HEK293T cells were transfected with pLS566 SEAP reporter plasmids and treated with drugs. Quantification of SEAP was performed 24 hours post drug treatment. f) SEAP activity upon transfecting single or paired […]
Quantification of SEAP activity of three CDHs with DMSO (dark color), specific (light color) and unspecific drug treatment (gray). […]
(culture medium) in panels of b, c, f and g were collected every 12 hours. Values were normalized to zero based on the SEAP expression at time 0. a, b, e, f, g) The bar charts show the mean ± s.d. of n = 3 biologically independent samples overlaid with a scatter dot plot of the original data points.

[3] = system: Gal4/UAS SEAP expression in HEK293T cells; test: Drug specificity of CDH-TFs; conditions: Suppl Fig 7b
Method: Supplementary Figure 7: Dose-dependence and reversibility characterization of CDHs in CDH-
a) Background signal of SEAP reporter in the absence of the CDH-TF system. HEK239T cells were
as §1, §2

[4] = Fig5c Luciferase via CDH-3-TF, four-parameter fit

SMILES: COc1cc2c(cc1OC(C)C)[C@H](c1ccc(Cl)cc1)N(c1ccc(N(C)C[C@H]3CC[C@H](N4CCN(C)C(=O)C4)CC3)cc1)C(=O)C2 [Drug-3, NVP-CGM097]
- Bottom (best-fit value) [1, 4]: 2526
- HillSlope (best-fit value) [1, 4]: -0.2874
- Span (best-fit value) [1, 4]: 8582
- Top (best-fit value) [1, 4]: 11108
- logIC50 (best-fit value) ([1]; Fig5c Luciferase via CDH-3-TF, four-parameter fit, drug in nM): 0.378
- Luciferase ([1]; 0.001 nM): 11408 and 10803 and 9477
- Luciferase ([1]; 0.01 nM): 8964 and 10094 and 8469
- Luciferase ([1]; 0.05 nM): 9839 and 9595 and 9040
- Luciferase ([1]; 0.1 nM): 9399 and 10012 and 6733
- Luciferase ([1]; 0.5 nM): 8698 and 9248 and 7194
- Luciferase ([1]; 1 nM): 7508 and 6014 and 5224
- Luciferase ([1]; 5 nM): 7040 and 7013 and 4899
- Luciferase ([1]; 50 nM): 6881 and 6483 and 4547
- Luciferase ([1]; 100 nM): 6853 and 5994 and 4849
- Luciferase ([1]; 500 nM): 3847 and 3669 and 3338
- Luciferase ([1]; 1000 nM): 2560 and 2436 and 2236
- CDH-3-TF controlled Luciferase expression ([1]; Fig S13c (with AIR-1-GEMS), Drug-3 0.01 nM): 74322 RLU and 90639 RLU and 90152 RLU
- CDH-3-TF controlled Luciferase expression ([1]; Fig S13c (with AIR-1-GEMS), Drug-3 0.1 nM): 79497 RLU and 97593 RLU and 89748 RLU
- CDH-3-TF controlled Luciferase expression ([1]; Fig S13c (with AIR-1-GEMS), Drug-3 1 nM): 92895 RLU and 90324 RLU and 97096 RLU
- CDH-3-TF controlled Luciferase expression ([1]; Fig S13c (with AIR-1-GEMS), Drug-3 3.14 nM): 89025 RLU and 81214 RLU and 83886 RLU
- CDH-3-TF controlled Luciferase expression ([1]; Fig S13c (with AIR-1-GEMS), Drug-3 10 nM): 71915 RLU and 80976 RLU and 86610 RLU
- CDH-3-TF controlled Luciferase expression ([1]; Fig S13c (with AIR-1-GEMS), Drug-3 31.4 nM): 73972 RLU and 79521 RLU and 71327 RLU
- CDH-3-TF controlled Luciferase expression ([1]; Fig S13c (with AIR-1-GEMS), Drug-3 100 nM): 58208 RLU and 70422 RLU and 71065 RLU
- CDH-3-TF controlled Luciferase expression ([1]; Fig S13c (with AIR-1-GEMS), Drug-3 314 nM): 42892 RLU and 48456 RLU and 50289 RLU
- CDH-3-TF controlled Luciferase expression ([1]; Fig S13c (with AIR-1-GEMS), Drug-3 1000 nM): 30804 RLU and 29063 RLU and 25322 RLU
- AIR-1-GEMS controlled SEAP expression ([1]; Drug-3 0.01 nM): 2.627 U/L and 3.059 U/L and 3.456 U/L
- AIR-1-GEMS controlled SEAP expression ([1]; Drug-3 0.1 nM): 2.503 U/L and 2.294 U/L and 2.87 U/L
- AIR-1-GEMS controlled SEAP expression ([1]; Drug-3 1 nM): 2.418 U/L and 1.987 U/L and 3.339 U/L
- AIR-1-GEMS controlled SEAP expression ([1]; Drug-3 3.14 nM): 2.659 U/L and 2.285 U/L and 3.202 U/L
- AIR-1-GEMS controlled SEAP expression ([1]; Drug-3 10 nM): 2.675 U/L and 2.964 U/L and 4.021 U/L
- AIR-1-GEMS controlled SEAP expression ([1]; Drug-3 31.4 nM): 3.041 U/L and 3.191 U/L and 3.396 U/L
- AIR-1-GEMS controlled SEAP expression ([1]; Drug-3 100 nM): 2.602 U/L and 2.779 U/L and 2.696 U/L
- AIR-1-GEMS controlled SEAP expression ([1]; Drug-3 314 nM): 2.611 U/L and 3.076 U/L and 2.832 U/L
- AIR-1-GEMS controlled SEAP expression ([1]; Drug-3 1000 nM): 3.25 U/L and 2.611 U/L and 2.639 U/L
- CDH-3-TF controlled Luciferase expression ([1]; Fig S13e (with AIR-2-GEMS), Drug-3 0.01 nM): 41565 RLU and 51927 RLU and 50033 RLU
- CDH-3-TF controlled Luciferase expression ([1]; Fig S13e (with AIR-2-GEMS), Drug-3 0.1 nM): 58083 RLU and 52382 RLU and 52587 RLU
- CDH-3-TF controlled Luciferase expression ([1]; Fig S13e (with AIR-2-GEMS), Drug-3 1 nM): 58208 RLU and 58951 RLU and 60752 RLU
- CDH-3-TF controlled Luciferase expression ([1]; Fig S13e (with AIR-2-GEMS), Drug-3 3.14 nM): 50716 RLU and 61071 RLU and 59090 RLU
- CDH-3-TF controlled Luciferase expression ([1]; Fig S13e (with AIR-2-GEMS), Drug-3 10 nM): 56023 RLU and 57202 RLU and 60529 RLU
- CDH-3-TF controlled Luciferase expression ([1]; Fig S13e (with AIR-2-GEMS), Drug-3 31.4 nM): 53333 RLU and 47578 RLU and 50640 RLU
- CDH-3-TF controlled Luciferase expression ([1]; Fig S13e (with AIR-2-GEMS), Drug-3 100 nM): 44259 RLU and 48370 RLU and 51647 RLU
- CDH-3-TF controlled Luciferase expression ([1]; Fig S13e (with AIR-2-GEMS), Drug-3 314 nM): 32705 RLU and 39602 RLU and 35080 RLU
- CDH-3-TF controlled Luciferase expression ([1]; Fig S13e (with AIR-2-GEMS), Drug-3 1000 nM): 15038 RLU and 22579 RLU and 17745 RLU
- AIR-2-GEMS controlled SEAP expression ([1]; Drug-3 0.01 nM): 23.8276 U/L and 27.0293 U/L and 24.7478 U/L
- AIR-2-GEMS controlled SEAP expression ([1]; Drug-3 0.1 nM): 31.2293 U/L and 29.7436 U/L and 28.9473 U/L
- AIR-2-GEMS controlled SEAP expression ([1]; Drug-3 1 nM): 33.4988 U/L and 33.4382 U/L and 38.599 U/L
- AIR-2-GEMS controlled SEAP expression ([1]; Drug-3 3.14 nM): 29.7735 U/L and 33.7772 U/L and 32.4262 U/L
- AIR-2-GEMS controlled SEAP expression ([1]; Drug-3 10 nM): 34.6343 U/L and 33.3124 U/L and 32.8022 U/L
- AIR-2-GEMS controlled SEAP expression ([1]; Drug-3 31.4 nM): 36.5713 U/L and 29.6375 U/L and 31.1491 U/L
- AIR-2-GEMS controlled SEAP expression ([1]; Drug-3 100 nM): 34.5656 U/L and 34.2561 U/L and 36.2322 U/L
- AIR-2-GEMS controlled SEAP expression ([1]; Drug-3 314 nM): 30.9331 U/L and 30.4872 U/L and 34.4499 U/L
- AIR-2-GEMS controlled SEAP expression ([1]; Drug-3 1000 nM): 13.1028 U/L and 12.5357 U/L and 11.75 U/L
- IC50 ([1]; Homo sapiens, HEK-293T, Fig5c Luciferase turn OFF via CDH-3-TF, four-parameter fit, read-out: IC50 (best-fit value)): 2.39 nM
- Reporter background signal ([2]; Suppl Fig 7a, TF reporter (S132) only): 2.305 and 2.301 and 2.45
- Reporter background signal ([2]; Suppl Fig 7e, GEMS reporter (pLS566) only): 5.089 and 3.395 and 2.755
- Reporter signal, drug specificity ([3]; CDH1): 58.9096 and 56.9625 and 57.522
- Reporter signal, drug specificity ([3]; CDH2): 99.5028 and 95.5176 and 91.4654
- Reporter signal, drug specificity ([3]; CDH3): 52.7796 and 52.4144 and 49.1641
